Data taken from patent publication US20130217702A1 (Richter Gedeon Nyrt., priority 2010, published 2013).

Tests used:
[1] = target: T1, recombinant human B1 receptors (Homo sapiens, UniProt P46663); assay: Functional assay: antagonist potency by cytosolic calcium measurement (plate reader fluorimeter) in CHO-B1 cells, agonist LysDABK; format: cell-based; conditions: CHO-B1 cells, inhibition of LysDABK (EC80)-evoked [Ca2+]i elevation; read-out: B1 func.
T1 construct: host or cells: CHO (CHO-B1)
T1 sequence (P46663 1-353): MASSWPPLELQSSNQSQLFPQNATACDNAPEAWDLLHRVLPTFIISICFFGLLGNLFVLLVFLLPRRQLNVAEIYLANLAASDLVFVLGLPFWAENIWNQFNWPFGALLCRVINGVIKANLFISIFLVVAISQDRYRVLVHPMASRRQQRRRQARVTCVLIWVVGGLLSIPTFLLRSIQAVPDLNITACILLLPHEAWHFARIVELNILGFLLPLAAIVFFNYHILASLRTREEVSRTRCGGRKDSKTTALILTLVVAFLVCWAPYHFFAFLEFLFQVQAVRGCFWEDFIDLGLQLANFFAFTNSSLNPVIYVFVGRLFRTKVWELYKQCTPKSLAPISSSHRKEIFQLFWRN
Experimental: Assessment of Antagonist Potency at B1 Receptors In Vitro by Measurement of Cytosolic Calcium Ion Concentration with a Plate Reader Fluorimeter in Cells Expressing Recombinant Human B1 Receptors
Chinese hamster ovary (CHO) cells stably expressing recombinant human B1 (CHO-B1, Euroscreen) receptors were cultured in Dulbecco's Modified Eagle's Medium (DMEM) containing 10% Fetal Calf Serum (FCS), 100 U/ml penicillin, 0.1 mg/ml streptomycin, 0.25 μg/ml amphotericin B, 1% Minimum Essential Medium Eagle (MEM), non essential amino acid solution, 600 μg/ml G418. Cells were kept at 37° C. in a humidified incubator in an atmosphere of 5% CO2/95% air and were passaged 1:4 three times a week. Cells were plated at 1.5−2.5×10^4 cell/well on standard 96-well microplates, measurements of cytosolic calcium ion concentration ([Ca^2+]i) were carried out 1-2 days after cell plating.
Measurements of [Ca^2+]i were carried out on CHO-B1 cells stably expressing human B1 receptors, respectively. Cells were grown in standard 96-well microplates and before the measurement were loaded with a fluorescent Ca^2+-sensitive dye, fluo-4/AM (2 μM): after removing the culture medium the dye was added to the cells (dissolved in assay buffer: 145 mM NaCl, 5 mM KCl, 2 mM MgCl2, 2 mM CaCl2, 10 mM HEPES, 20 mM D-glucose, 2 mM probenecid, 100 μl/well) and cells were incubated at 37° C. in a humidified incubator in an atmosphere of 5% CO2/95% air for 40-120 min. To stop dye loading cells were washed twice with assay buffer. After washing, various concentrations of the test compounds (diluted in extracellular medium from a DMSO stock solution, final DMSO concentration was <0.1%) or buffer were added to each well depending on the experimental setup. After incubation at 37° C. for 20-25 min. baseline and agonist-evoked changes of [Ca^2+]; were measured column by column with a plate reader fluorimeter (Fluoroskan Ascent, Labsystems). Excitation and detection of emission was carried out from the bottom of the plate. Filters used for Fluo-4: excitation filter 485 nm, emission filter 538 nm. The whole measurement process was performed at 37° C. and was controlled by custom software. Inhibitory potency of the test compounds was assessed by measuring the reduction in the agonist-evoked [Ca^2+]i-elevation in the presence of different concentrations of the compounds. The agonist was LysDABK for CHO-B1 cells. Agonist was applied at an EC80 concentration; the EC80-values were derived from daily determined dose-response curves. Fluorescence data were expressed as ΔF/F (fluorescence change normalized to baseline). All treatments on a single plate were measured in multiple wells. Data from all wells with the same treatment were averaged and the average values were used for analysis. Inhibitory potency of a compound at a single concentration point was expressed as percent inhibition of the control agonist response. Sigmoidal concentration-inhibition curves were fitted to the data (derived from at least three independent experiments) and IC50-values were determined as the concentration that produces half of the maximal inhibition caused by the compound.

[2] = target: T2, human recombinant bradykinin B1 receptor (Homo sapiens, UniProt P46663); assay: Human recombinant bradykinin B1 receptor competitive radioligand binding; conditions: hB1 expressed in CHO cells, [3H]-[Des-Arg10] Kallidin radioligand; read-out: B1 binding
T2 construct: host or cells: CHO cells, clone hB1-A5
T2 sequence (P46663 1-353): T1 sequence (P46663 1-353)
Experimental: Assessment of Ligand Binding Affinity to B1 and B2 Receptors In Vitro by Competitive Radioligand Binding Assay
Binding assays were carried out on human recombinant bradykinin) receptors (expressed in CHO cells, hB1-A5) according to the Euroscreen Technical Data Sheet (Cat.No.:ES-091). 20 μg protein/tube was incubated with [3,4-prolyl-3,4-^3H(N)]-[Des-Arg^10] Kallidin as radioligand. Non specific binding was determined in the presence of 10 μM Lys-des-Arg^9-Bradykinin. The final incubation volume was 250 μl. Samples were incubated for 15 min. at 25° C. then were rapidly vacuum filtered through GF/B filters presoaked for at least 1 h in 0.5% PEI. Radioactivity was determined by liquid scintillation spectroscopy.
The ligand displacement by the compounds was determined using a minimum of seven concentrations in triplicate, and experiments were repeated at least two times. The specific radioligand binding is defined as the difference between total binding and the non-specific binding determined in the presence of an excess of unlabelled ligand. Results are expressed as a percent inhibition of specific binding obtained in the presence of RGH-478 or reference drugs. IC50 values (i.e. concentration of compound giving 50% inhibition of specific binding) were calculated from concentration-displacement curves by sigmoidal fitting using GraphPad Prism Software 4.0. Ki values (i.e. inhibition constants) were calculated using the Cheng-Prusoff equation. KD was determined from the Scatchard plot. (Editor-in-chief: Enna, S. J. and Williams, M. Current protocols in pharmacology vol. 1. John Wiley & sons Inc., 1998)

Compound	IC50 [1] [nM]	Ki [2] [nM]
COc1cc(C(=O)NC2(C(=O)NCc3ccc(-n4c(-c5nnn(C)n5)c(Cl)c5cc(Cl)ccc54)cc3)CC2)on1 [Example 18, 3-Methoxy-isoxazole-5-carboxylic acid (1-{4-[3,5-dichloro-2-(2-methyl-2H-tetrazol-5-yl)-indol-1-yl]-benzylcarbamoyl}-cyclopropyl)-amide]	< 20	< 20
Cn1nnc(-c2c(Cl)c3cc(F)ccc3n2-c2ccc(CNC(=O)C3(NC(=O)C(F)(F)F)CC3)c(F)c2)n1 [Example 19]	< 20	< 20
COc1cc(C(=O)NC2(C(=O)NCc3ccc(-n4c(-c5nnn(C)n5)c(Cl)c5cc(F)ccc54)cc3F)CC2)on1 [Example 20, 3-Methoxy-isoxazole-5-carboxylic acid (1-{4-[3-chloro-5-fluoro-2-(2-methyl-2H-tetrazol-5-yl)-indol-1-yl]-2-fluoro-benzylcarbamoyl}-cyclopropyl)-amide]	< 20	< 20
COc1cc(C(=O)NC2(C(=O)NCc3ccc(-n4c(-c5noc(C)n5)c(C#N)c5ccccc54)cc3)CC2)on1 [Example 21, 3-Methoxy-isoxazole-5-carboxylic acid (1-{4-[3-cyano-2-(5-methyl-[1,2,4]oxadiazol-3-yl)-indol-1-yl]-benzylcarbamoyl}-cyclopropyl)-amide]	< 20	< 20
Cn1nnc(-c2c(Cl)c3cc(Cl)ccc3n2-c2ccc(CNC(=O)C3(NC(=O)C(F)(F)F)CC3)c(F)c2)n1 [Example 22, 1-(2,2,2-Trifluoro-acetylamino)-cyclopropanecarboxylic acid 4-[3,5-dichloro-2-(2-methyl-2H-tetrazol-5-yl)-indol-1-yl]-2-fluoro-benzylamide]	< 20	< 20
Cc1nc(-c2c(Cl)c3ccccc3n2-c2ccc(CNC(=O)C3(NC(=O)C(F)(F)F)CC3)cc2)no1 [Example 23, 1-(2,2,2-Trifluoro-acetylamino)-cyclopropanecarboxylic acid 4-[3-chloro-2-(5-methyl-[1,2,4]oxadiazol-3-yl)-indol-1-yl]-benzylamide]	< 20	< 20
Cn1nnc(-c2c(Cl)c3ccccc3n2-c2ccc(CNC(=O)C3(NC(=O)c4cc(C5CC5)on4)CC3)cc2)n1 [Example 24, 5-Cyclopropyl-isoxazole-3-carboxylic acid (1-{4-[3-chloro-2-(2-methyl-2H-tetrazol-5-yl)-indol-1-yl]-benzylcarbamoyl}-cyclopropyl)-amide]	< 20	< 20
Cc1cnc(C(=O)NC2(C(=O)NCc3ccc(-n4c(-c5nnn(C)n5)c(Cl)c5ccccc54)cc3)CC2)cn1 [Example 25, 5-Methyl-pyrazine-2-carboxylic acid (1-{4-[3-chloro-2-(2-methyl-2H-tetrazol-5-yl)-indol-1-yl]-benzylcarbamoyl}-cyclopropyl)-amide]	20 to 100	< 20
Cc1cc(C(=O)NC2(C(=O)NCc3ccc(-n4c(-c5nnn(C)n5)c(Cl)c5ccccc54)cc3)CC2)no1 [Example 26, 5-Methyl-isoxazole-3-carboxylic acid (1-{4-[3-chloro-2-(2-methyl-2H-tetrazol-5-yl)-indol-1-yl]-benzylcarbamoyl}-cyclopropyl)-amide]	< 20	< 20
Cn1nnc(-c2c(Cl)c3ccccc3n2-c2ccc(CNC(=O)C3(NC(=O)c4cccnc4Cl)CC3)cc2)n1 [Example 27, 2-Chloro-N-(1-{4-[3-chloro-2-(2-methyl-2H-tetrazol-5-yl)-indol-1-yl]-benzylcarbamoyl}-cyclopropyl)-nicotinamide]	< 20	< 20
Cn1nnc(-c2c(Cl)c3ccccc3n2-c2ccc(CNC(=O)C3(NC(=O)c4ccnc(F)c4)CC3)cc2)n1 [Example 28, N-(1-{4-[3-chloro-2-(2-methyl-2H-tetrazol-5-yl)-indol-1-yl]-benzylcarbamoyl}-cyclopropyl)-2-fluoro-isonicotinamide]	< 20	< 20
Cn1nnc(-c2c(Cl)c3ccccc3n2-c2ccc(CNC(=O)C3(NC(=O)CC(F)(F)F)CC3)cc2)n1 [Example 29, 1-(3,3,3,-Trifluoro-propionylamino)-cyclopropanecarboxylic acid 4-[3-chloro-2-(2-methyl-2H-tetrazol-5-yl)-indol-1-yl]-benzylamide]	< 20	< 20
Cn1nnc(-c2c(Cl)c3ccccc3n2-c2ccc(CNC(=O)C3(NC(=O)c4cncc(C(F)(F)F)c4)CC3)cc2)n1 [Example 30, N-(1-{4-[3-chloro-2-(2-methyl-2H-tetrazol-5-yl)-indol-1-yl]-benzylcarbamoyl}-cyclopropyl)-5-trifluoromethyl-nicotinamide]	< 20	< 20
Cn1nnc(-c2c(Cl)c3ccccc3n2-c2ccc(CNC(=O)C3(NC(=O)c4cccc(F)c4)CC3)cc2)n1 [Example 31, N-(1-{4-[3-chloro-2-(2-methyl-2H-tetrazol-5-yl)-indol-1-yl]-benzylcarbamoyl}-cyclopropyl)-3-fluoro-benzamide]	< 20	< 20
CNC(=O)c1c(Cl)c2ccccc2n1-c1ccc(C(C)NC(=O)C2(NC(=O)C(F)(F)F)CC2)cc1 (stereo not shown) [Example 32, 3-Chloro-1-[4-(1-{[1-(2,2,2-trifluoro-acetylamino)-cyclopropanecarbonyl]-amino}-ethyl)-phenyl]-1H-indole-2-carboxylic acid methylamide]	< 20	< 20
CC(NC(=O)C1(NC(=O)C(F)(F)F)CC1)c1ccc(-n2c(C(=O)N3CCCC3)c(Cl)c3ccccc32)cc1 (stereo not shown) [Example 33, 1-(2,2,2-Trifluoro-acetylamino)-cyclopropanecarboxylic acid (1-{4-[3-chloro-2-(pyrrolidine-1-carbonyl)-indol-1-yl]-phenyl}-ethyl)-amide]	100 to 500	20 to 100
CCOC(=O)c1c(Cl)c2ccccc2n1-c1ccc(CNC(=O)C2(NC(=O)c3cc(OC)no3)CC2)cc1 [Example 34, 3-Chloro-1-{4-[({1-[(3-methoxy-isoxazole-5-carbonyl)-amino]-cyclopropane-carbonyl}-amino)-methyl]-phenyl}-1H-indole-2-carboxylic acid ethyl ester]	20 to 100	< 20
